Measured values reported in publication PMC2865264 (The Journal of Biological Chemistry, 2010).

T1: GST:PK50 (Trypanosoma brucei, UniProt Q26801)
T1 sequence (Q26801 1-437): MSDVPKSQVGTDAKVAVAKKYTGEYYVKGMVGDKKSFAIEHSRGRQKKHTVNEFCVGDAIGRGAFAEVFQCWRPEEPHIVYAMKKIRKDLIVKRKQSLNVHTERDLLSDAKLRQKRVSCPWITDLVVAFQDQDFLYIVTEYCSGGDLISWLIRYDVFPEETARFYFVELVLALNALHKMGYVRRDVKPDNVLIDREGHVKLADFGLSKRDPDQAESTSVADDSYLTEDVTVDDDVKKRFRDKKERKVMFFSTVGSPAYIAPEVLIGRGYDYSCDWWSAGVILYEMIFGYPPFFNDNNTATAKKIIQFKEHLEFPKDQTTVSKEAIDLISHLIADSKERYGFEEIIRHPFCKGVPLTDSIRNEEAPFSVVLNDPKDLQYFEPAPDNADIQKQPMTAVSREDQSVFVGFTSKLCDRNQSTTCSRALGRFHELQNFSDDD


How the values were obtained:
[1] = biological target: T1, GST:PK50; assay: radiometric filter plate kinase assay, [gamma-33P]ATP, 10-point dilution; type: biochemical
[2] = biological target: GST:PK53 (Trypanosoma brucei, UniProt Q582J2, E440D); conditions: ATP at its Km; peptide KKLNRTLSFAEPG; Tris-HCl pH 7.0, 1 mM MnCl2, 1% DMSO
[3] = substrate: Nc1ncnc2c1ncn2[C@@H]1O[C@H](COP(=O)(O)OP(=O)(O)OP(=O)(O)O)[C@@H](O)[C@H]1O; assay: purified protein; conditions: co-substrate peptide … varied, 15 nM enzyme, Tris-HCl pH 7.9, 3 mM MnCl2

Row | Molecule | IC50 [1] [nM] | IC50 [2] [nM] | Km [3] [µM]
1 | CN[C@@H]1C[C@H]2O[C@@](C)([C@@H]1OC)n1c3ccccc3c3c4c(c5c6ccccc6n2c5c31)C(=O)NC4 [staurosporine] | 216 ± 47 | 4.6 ± 0.3 | 
2 | GST:PK50 (Trypanosoma brucei) (protein) MSDVPKSQVGTDAKVAVAKKYTGEYYVKGMVGDKKSFAIEHSRGRQKKHTVNEFCVGDAIGRGAFAEVFQCWRPEEPHIVYAMKKIRKDLIVKRKQSLNVHTERDLLSDAKLRQKRVSCPWITDLVVAFQDQDFLYIVTEYCSGGDLISWLIRYDVFPEETARFYFVELVLALNALHKMGYVRRDVKPDNVLIDREGHVKLADFGLSKRDPDQAESTSVADDSYLTEDVTVDDDVKKRFRDKKERKVMFFSTVGSPAYIAPEVLIGRGYDYSCDWWSAGVILYEMIFGYPPFFNDNNTATAKKIIQFKEHLEFPKDQTTVSKEAIDLISHLIADSKERYGFEEIIRHPFCKGVPLTDSIRNEEAPFSVVLNDPKDLQYFEPAPDNADIQKQPMTAVSREDQSVFVGFTSKLCDRNQSTTCSRALGRFHELQNFSDDD |  |  | 25.7 ± 4.8
